Active and inactive are the calls of the source.
Tests used:
P388/ADR = test: cells; format: functional; conditions: Mus musculus
SN12K1 = test: cells; format: functional; conditions: Homo sapiens
P388 = test: cells; format: functional; conditions: Mus musculus
[1] = biological target: Dual specificity tyrosine-phosphorylation-regulated kinase 1A (Rattus norvegicus, UniProt Q63470); format: biochemical, Homo sapiens
Escherichia coli = test: microbe, parasite or virus in culture
[2] = biological target: T1, Heat shock factor protein 1 (Mus musculus, UniProt P38532); test: inhibition of MG132-induced HSE-luciferase signal, confirmation, cell-based, NIH3T3, luminescence, dose retest (AID 2382); format: functional;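 further: NIH3T3 fibroblasts with HSF1-driven luciferase reporter stressed by proteasome inhibitor MG132; luminescence from HSF1-driven luciferase expression after 8 hours of MG132 stress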
T1 sequence (P38532 whole entry): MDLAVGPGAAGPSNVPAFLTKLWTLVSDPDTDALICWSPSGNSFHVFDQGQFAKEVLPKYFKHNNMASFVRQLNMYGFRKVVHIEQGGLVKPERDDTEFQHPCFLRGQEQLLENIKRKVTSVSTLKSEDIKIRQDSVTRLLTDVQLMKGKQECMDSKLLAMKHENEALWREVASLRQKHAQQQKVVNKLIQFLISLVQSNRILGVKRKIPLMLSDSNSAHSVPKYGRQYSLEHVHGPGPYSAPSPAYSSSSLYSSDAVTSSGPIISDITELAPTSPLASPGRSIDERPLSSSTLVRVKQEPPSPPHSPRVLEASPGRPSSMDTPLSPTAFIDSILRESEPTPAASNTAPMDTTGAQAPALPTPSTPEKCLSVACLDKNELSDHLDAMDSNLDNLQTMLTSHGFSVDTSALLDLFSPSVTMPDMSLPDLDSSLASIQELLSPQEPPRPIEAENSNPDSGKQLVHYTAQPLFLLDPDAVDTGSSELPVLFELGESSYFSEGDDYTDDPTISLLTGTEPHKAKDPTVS

[3] = biological target: T2, Endoribonuclease toxin MazF (Escherichia coli K-12, UniProt P0AE70); test: fluorescent RNA oligo signal without MazF, dose response, counter-screen for MazEF activator project, biochemical, fluorescence, single-stranded RNase substrate (AID 588502); format: functional
T2 sequence (P0AE70 whole entry): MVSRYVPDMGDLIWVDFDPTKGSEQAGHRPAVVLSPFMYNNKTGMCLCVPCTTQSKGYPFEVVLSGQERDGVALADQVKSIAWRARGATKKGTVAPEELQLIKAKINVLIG

[4] = biological target: T2, Endoribonuclease toxin MazF; test: MazF toxin RNase activators, dose response, biochemical, fluorescence, single-stranded RNA substrate, uHTS hits (AID 588481); format: functional
[5] = biological target: T3, Carboxy-terminal domain RNA polymerase II polypeptide A small phosphatase 1 (Homo sapiens, UniProt Q9GZU7); test: inhibitors of CTDSP1, concentration-response testing, biochemical assay, absorbance-based, actives from ultra-high-throughput screening (AID 540297); format: functional
T3 sequence (Q9GZU7 whole entry): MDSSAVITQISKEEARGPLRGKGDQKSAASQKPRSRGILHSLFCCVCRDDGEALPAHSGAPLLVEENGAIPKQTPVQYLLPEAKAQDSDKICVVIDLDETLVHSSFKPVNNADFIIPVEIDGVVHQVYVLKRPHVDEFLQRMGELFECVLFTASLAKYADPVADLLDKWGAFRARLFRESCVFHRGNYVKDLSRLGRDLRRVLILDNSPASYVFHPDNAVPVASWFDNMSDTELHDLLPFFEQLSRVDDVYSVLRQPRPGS

HEK293 = test: inhibitors of LMP1-driven NF-kB reporter, dose response, cell-based, HEK293, luciferase, cherry-pick (AID 588343); format: functional; conditions: Homo sapiens
Cytochrome P450 3A4 = Cytochrome P450 3A4 (Homo sapiens, UniProt P08684);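 further: CYP3A4 tested as one member of a cytochrome P450 panel screen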
Cytochrome P450 2D6 = Cytochrome P450 2D6 (Homo sapiens, UniProt P10635);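 further: CYP2D6 member of a cytochrome P450 panel assay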
Melanocortin receptor 4 = Melanocortin receptor 4 (Homo sapiens, UniProt P32245); format: functional, cell-based;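 further: Cell-based assay with luminescence read-out, confirmatory dose-response testing for agonist activity of biased ligands at MC4R; human U2OS cells with tagged receptor and beta-arrestin; potency of agonists that increase receptor coupling to beta-arrestin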
[6] = biological target: DNA dC->dU-editing enzyme APOBEC-3G (Homo sapiens, UniProt Q9HC16); test: Dose Response confirmation of small molecule APOBEC3G DNA Deaminase Inhibitors via a fluorescence-based single-stranded DNA deaminase assay. [Related pubchem assays (depositor defined):AID493012, AID493028]; format: functional
[7] = biological target: DNA dC->dU-editing enzyme APOBEC-3A (Homo sapiens, UniProt P31941); test: APOBEC3A DNA deaminase inhibitors, dose response, biochemical (AID 504722); format: functional
Protein RecA = biological target: T4, Protein RecA (Mycobacterium tuberculosis, UniProt P9WHJ3); test: Fluorescence Cell-Free Homogeneous Dose Retest to Identify Inhibitors of RecA-Intein Splicing Activity. [Related pubchem assays (depositor defined):AID2097, AID2223, AID489010, AID492950]; format: functional
T4 sequence (P9WHJ3 whole entry): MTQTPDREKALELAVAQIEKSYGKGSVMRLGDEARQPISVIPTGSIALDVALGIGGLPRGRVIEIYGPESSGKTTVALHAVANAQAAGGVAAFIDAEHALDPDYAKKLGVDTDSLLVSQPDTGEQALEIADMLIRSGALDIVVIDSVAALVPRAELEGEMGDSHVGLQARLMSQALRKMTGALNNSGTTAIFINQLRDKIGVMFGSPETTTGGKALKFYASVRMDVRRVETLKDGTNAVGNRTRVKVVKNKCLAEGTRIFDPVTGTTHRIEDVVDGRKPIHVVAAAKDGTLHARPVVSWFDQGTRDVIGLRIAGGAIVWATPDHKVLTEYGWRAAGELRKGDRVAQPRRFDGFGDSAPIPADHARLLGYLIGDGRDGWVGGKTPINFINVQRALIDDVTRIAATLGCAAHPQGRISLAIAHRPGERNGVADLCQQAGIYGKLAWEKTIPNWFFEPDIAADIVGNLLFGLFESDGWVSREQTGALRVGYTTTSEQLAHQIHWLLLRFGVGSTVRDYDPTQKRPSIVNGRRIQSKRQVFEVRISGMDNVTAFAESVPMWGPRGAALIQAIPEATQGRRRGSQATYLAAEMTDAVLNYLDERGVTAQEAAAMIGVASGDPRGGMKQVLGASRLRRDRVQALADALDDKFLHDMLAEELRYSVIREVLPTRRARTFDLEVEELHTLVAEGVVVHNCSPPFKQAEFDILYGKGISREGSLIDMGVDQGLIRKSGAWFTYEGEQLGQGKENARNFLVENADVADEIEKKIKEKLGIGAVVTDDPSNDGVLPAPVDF

[8] = biological target: T5, Replicative DNA helicase DnaB (Mycobacterium tuberculosis, UniProt P9WMR3); test: DnaB intein splicing inhibitors, dose response, biochemical, cell-free fluorescence (AID 449749); format: functional
T5 sequence (P9WMR3 whole entry): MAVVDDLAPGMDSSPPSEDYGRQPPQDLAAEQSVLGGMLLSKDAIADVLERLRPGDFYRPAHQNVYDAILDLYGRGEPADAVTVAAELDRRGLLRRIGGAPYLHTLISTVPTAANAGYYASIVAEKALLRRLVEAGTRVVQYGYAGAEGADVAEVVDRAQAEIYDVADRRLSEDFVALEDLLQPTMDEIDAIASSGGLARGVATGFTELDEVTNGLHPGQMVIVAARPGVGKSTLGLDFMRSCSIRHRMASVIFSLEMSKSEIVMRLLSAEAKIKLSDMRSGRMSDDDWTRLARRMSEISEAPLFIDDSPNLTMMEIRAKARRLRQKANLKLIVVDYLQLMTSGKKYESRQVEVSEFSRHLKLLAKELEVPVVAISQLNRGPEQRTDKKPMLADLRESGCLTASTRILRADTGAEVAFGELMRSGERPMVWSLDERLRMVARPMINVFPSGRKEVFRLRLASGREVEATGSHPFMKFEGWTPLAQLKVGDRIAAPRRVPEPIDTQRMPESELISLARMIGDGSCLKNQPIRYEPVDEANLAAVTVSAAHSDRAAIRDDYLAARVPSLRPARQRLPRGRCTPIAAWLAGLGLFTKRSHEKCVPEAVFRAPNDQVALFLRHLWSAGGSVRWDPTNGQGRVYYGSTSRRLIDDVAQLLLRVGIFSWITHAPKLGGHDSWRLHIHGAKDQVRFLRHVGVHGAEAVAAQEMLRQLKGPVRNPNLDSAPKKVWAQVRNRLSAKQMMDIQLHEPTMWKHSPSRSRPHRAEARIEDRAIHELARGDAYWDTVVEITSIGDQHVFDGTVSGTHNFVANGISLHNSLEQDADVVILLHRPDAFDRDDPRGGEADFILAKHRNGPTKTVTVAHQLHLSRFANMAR

[9] = biological target: T6, Short transient receptor potential channel 4 (Mus musculus, UniProt Q9QUQ5); test: mouse TRPC4 channel inhibitors, dose response, cell-based, HEK293 TRPC4/mu-opioid, Fluo-4 calcium (AID 434942); format: functional;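 further: potency of inhibitors blocking the TRPC4 calcium response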
T6 sequence (Q9QUQ5 whole entry): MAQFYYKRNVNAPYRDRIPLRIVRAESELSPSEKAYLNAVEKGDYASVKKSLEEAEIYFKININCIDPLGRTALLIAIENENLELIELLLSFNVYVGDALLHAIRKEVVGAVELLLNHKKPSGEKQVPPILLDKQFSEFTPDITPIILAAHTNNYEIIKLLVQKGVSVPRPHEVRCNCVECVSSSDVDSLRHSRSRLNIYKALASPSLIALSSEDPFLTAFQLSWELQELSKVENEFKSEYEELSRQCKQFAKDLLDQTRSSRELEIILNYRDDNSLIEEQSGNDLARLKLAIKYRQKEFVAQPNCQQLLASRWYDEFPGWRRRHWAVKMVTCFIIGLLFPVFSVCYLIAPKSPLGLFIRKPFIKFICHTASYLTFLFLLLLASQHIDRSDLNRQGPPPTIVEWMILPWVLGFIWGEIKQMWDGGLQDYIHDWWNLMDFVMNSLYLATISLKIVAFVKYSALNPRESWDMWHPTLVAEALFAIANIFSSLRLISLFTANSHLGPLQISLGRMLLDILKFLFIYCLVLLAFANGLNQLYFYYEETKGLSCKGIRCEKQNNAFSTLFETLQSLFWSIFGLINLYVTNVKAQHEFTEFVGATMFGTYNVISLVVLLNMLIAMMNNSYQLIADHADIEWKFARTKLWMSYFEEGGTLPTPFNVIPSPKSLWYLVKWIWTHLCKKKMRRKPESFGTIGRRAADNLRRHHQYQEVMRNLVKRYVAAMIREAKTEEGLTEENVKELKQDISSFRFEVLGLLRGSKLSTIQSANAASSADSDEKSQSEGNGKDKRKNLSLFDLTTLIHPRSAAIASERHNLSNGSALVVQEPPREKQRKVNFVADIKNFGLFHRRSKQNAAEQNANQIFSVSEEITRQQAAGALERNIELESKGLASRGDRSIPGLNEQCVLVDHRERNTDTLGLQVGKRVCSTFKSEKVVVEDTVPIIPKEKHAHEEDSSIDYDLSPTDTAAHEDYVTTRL

[10] = Luminescence Cell-Based Dose Retest to Confirm Inhibitors of Cancer Stem Cells. [Related pubchem assays (depositor defined):AID2717, AID2721]; format: functional; conditions: Homo sapiens

Melanocortin receptor 4, sequence (P32245 whole entry): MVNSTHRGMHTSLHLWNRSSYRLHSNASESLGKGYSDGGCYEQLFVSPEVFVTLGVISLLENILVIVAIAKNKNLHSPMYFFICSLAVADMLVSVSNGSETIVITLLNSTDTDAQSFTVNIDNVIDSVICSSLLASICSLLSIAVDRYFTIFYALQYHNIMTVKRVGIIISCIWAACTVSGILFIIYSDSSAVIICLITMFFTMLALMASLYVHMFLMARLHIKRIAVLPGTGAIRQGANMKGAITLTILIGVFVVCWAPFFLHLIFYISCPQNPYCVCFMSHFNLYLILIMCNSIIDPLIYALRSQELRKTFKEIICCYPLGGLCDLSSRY
Cytochrome P450 2D6, sequence (P10635 whole entry): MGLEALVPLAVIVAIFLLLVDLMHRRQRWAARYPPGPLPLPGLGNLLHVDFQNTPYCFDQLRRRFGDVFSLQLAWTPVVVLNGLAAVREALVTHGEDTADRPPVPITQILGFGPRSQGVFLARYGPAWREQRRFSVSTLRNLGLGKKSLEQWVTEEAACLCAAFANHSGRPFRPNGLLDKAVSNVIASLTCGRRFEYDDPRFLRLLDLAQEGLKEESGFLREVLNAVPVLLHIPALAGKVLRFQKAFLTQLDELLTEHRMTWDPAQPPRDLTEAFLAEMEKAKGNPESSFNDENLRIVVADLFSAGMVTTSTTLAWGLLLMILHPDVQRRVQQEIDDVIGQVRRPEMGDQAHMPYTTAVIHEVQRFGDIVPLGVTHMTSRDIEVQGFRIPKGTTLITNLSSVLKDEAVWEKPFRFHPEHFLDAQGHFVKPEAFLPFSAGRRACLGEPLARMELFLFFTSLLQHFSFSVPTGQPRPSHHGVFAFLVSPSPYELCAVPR
Cytochrome P450 3A4, sequence (P08684 whole entry): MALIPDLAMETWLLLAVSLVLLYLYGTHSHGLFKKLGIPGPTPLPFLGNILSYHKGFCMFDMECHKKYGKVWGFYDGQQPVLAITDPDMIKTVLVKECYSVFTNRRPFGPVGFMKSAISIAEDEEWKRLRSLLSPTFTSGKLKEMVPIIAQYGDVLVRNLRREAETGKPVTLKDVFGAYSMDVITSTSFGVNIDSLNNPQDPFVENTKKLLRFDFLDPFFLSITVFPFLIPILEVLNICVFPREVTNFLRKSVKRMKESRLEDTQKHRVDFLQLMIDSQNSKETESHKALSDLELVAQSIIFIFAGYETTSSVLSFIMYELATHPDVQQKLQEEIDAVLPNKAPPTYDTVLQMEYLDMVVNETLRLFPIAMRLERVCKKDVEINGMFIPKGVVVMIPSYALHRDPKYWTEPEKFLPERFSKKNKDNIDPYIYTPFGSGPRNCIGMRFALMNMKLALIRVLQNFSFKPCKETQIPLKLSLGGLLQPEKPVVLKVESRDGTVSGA
DNA dC->dU-editing enzyme APOBEC-3G, sequence (Q9HC16 whole entry): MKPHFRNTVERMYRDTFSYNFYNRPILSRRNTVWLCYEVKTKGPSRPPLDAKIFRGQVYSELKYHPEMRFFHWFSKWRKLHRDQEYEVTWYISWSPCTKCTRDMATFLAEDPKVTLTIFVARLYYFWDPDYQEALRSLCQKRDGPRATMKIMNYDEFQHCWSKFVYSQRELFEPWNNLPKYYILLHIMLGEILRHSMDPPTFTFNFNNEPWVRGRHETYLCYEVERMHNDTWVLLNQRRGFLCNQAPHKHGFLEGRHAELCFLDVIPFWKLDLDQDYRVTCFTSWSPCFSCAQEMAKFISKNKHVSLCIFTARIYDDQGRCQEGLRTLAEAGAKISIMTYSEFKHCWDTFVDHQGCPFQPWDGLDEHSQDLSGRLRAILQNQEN
DNA dC->dU-editing enzyme APOBEC-3A, sequence (P31941 whole entry): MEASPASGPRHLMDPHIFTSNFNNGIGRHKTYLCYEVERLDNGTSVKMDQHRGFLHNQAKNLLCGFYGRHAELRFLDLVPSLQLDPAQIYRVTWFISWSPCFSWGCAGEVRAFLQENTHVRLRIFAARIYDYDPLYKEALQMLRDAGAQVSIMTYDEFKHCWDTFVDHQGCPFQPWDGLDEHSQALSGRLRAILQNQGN

SMILES: O=C1C(O)=C(CC=C(Cl)Cl)C(=O)c2ccccc21
- GI50 (P388/ADR): 1.6 µM (inactive)
- GI50 (SN12K1): 1.11 µM (active)
- GI50 (P388): 1.8 µM (inactive)
- AC50 [1]: 4.87 µM (active)

SMILES: CCOC(=O)CSc1cc(CS(C)(=O)=O)nc(-c2ccccn2)n1
- AC50 (Escherichia coli): 56.8 µM (active)
- EC50 [2]: > 195 µM (not active)

SMILES: CC1CC(=O)N(c2ccc(NCc3ccc(Cl)cc3)c([N+](=O)[O-])c2)C1=O (centres undefined)
- EC50 [3]: > 99 µM (inactive)
- EC50 [4]: 96.1 µM (inactive)

SMILES: O=C(C=C1SCCS1)/C=C/c1ccco1
- IC50 [5]: 7.85 µM (active)
- AC50 (HEK293): 10.8 µM (active)
- AC50 (Cytochrome P450 3A4): 15.8 µM (inconclusive)
- AC50 (Cytochrome P450 2D6): 17.8 µM (inconclusive)

SMILES: COC(=O)CSc1ncnc2c1sc1nc3c(cc12)COC(C)(C)C3
- AC50 (HEK293): 4.32 µM (active)

SMILES: CC(=O)Nc1cc(-c2cccc(C(=O)N(C)C)c2)cn2c(-c3ccc(F)c(Cl)c3)cnc12
- EC50 (Melanocortin receptor 4): > 89.2 µM (inactive)

SMILES: COc1cccc(-c2cnc3c(NC(C)=O)cc(-c4ccc(C(=O)N5CCOCC5)cc4)cn23)c1
- EC50 (Melanocortin receptor 4): > 89.2 µM (inactive)

SMILES: Cc1nn(-c2ccccc2)c(O)c1/C=N/c1ccc2[nH]c(O)nc2c1
- EC50 [3]: > 99 µM (inactive)
- EC50 [4]: > 99 µM (inactive)

SMILES: Sc1nnc(C2CCCCC2)n1/N=C/c1ccncc1
- IC50 [6]: 7.27 µM (active)
- AC50 (HEK293): 11.5 µM (active)
- IC50 [7]: > 100 µM (inactive)

SMILES: COc1ccc(O)c(-c2cc(-c3cccs3)[nH]n2)c1
- AC50 [1]: 10.6 µM (active)

SMILES: O=C1C(Cl)=C(NCCc2ccccc2)C(=O)N1CCc1ccccc1
- EC50 [3]: > 99 µM (inactive)
- EC50 [4]: > 99 µM (inactive)

SMILES: CC(=O)c1ccc(-c2cccc(-c3nc4ccccn4c3NC3CCCCC3)c2)cc1
- EC50 (Protein RecA): 0.178 µM (active)
- AC50 (Escherichia coli): 299 µM (active)
- AC50 [8]: 0.377 µM (active)

SMILES: Cc1cc(Nc2ccccc2)nc2cc(O)ccc12
- EC50 [9]: 3.76 µM (active)
- AC50 [1]: 4.44 µM (active)

SMILES: CCN1CCN(Cc2ccc(NC(=O)c3ccc(C)c(NC(=O)c4nccn4C)c3)cc2C(F)(F)F)CC1
- AC50 (HEK293): 1.56 µM (active)

SMILES: O=c1oc(/C=C/c2ccco2)nc2sc3c(c12)CCC3
- EC50 [3]: > 99 µM (inactive)
- EC50 [4]: > 99 µM (inactive)

SMILES: COc1ccc(-c2sc3ccc(N4CCOCC4)cc3c2C#CC2(O)CCCCC2)cc1
- AC50 [10]: 0.749 µM (active)
- EC50 (Melanocortin receptor 4): > 89.2 µM (inactive)

SMILES: O=C(NCc1ccco1)c1sc2ccccc2c1Cl
- AC50 [1]: 7.39 µM (active)

— ChEMBL document CHEMBL1201862, “PubChem BioAssay data set” (2004)
